Data on four molecules can be found in US10603322B2, “Therapeutic targeting of casein kinase 1δ in breast cancer” (The Scripps Research Institute, priority 2015, dated 2020).

The structures appear in SMILES notation.

For one experiment, the system named is MDA-MB-231 TNBC cells. The experiment in a line: Cell proliferation / growth assay. Type of experiment: cell-based, human.
A further experiment concerns cancer cells. Conditions: cited from earlier work.
A further experiment relates to BCM-4013 PDX tumors. The settings on record: mouse, in vivo; cited from earlier work.

On to `CC(C)(C)c1cc(NC(=O)Nc2ccc(-c3cn4c(n3)sc3cc(OCCN5CCOCC5)ccc34)cc2)no1` [AC220, reference compound], for which the anti-proliferative activity result in the experiment with MDA-MB-231 TNBC cells is on record as “insensitive”.
As for `COc1cc(OC)c(C=C2C(O)=Nc3ccccc32)c(OC)c1` [IC261], the mode of action result with cancer cells (not by inhibition of CK1δ/CK1ε) is on record as “blocking tubulin function”.
On to `Nc1nccc(-c2c(-c3ccc(F)cc3)ncn2C2CCCCC2)n1` [PF670462], for which, in the experiment on cancer cells, the anti-cancer activity result was “lacks anti-cancer activity”.
For the molecule `CC(=O)O[C@@]12CO[C@@H]1C[C@H](O)[C@@]1(C)C(=O)[C@H](O)C3=C(C)[C@@H](OC(=O)[C@H](O)[C@@H](NC(=O)OC(C)(C)C)c4ccccc4)C[C@@](O)([C@@H](OC(=O)c4ccccc4)[C@H]21)C3(C)C` [docetaxel], the “response of the BCM-4013 model to treatment” value in the experiment on BCM-4013 PDX tumors was “limited response”.
